#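 Cultured in 96-well plates, cells were exposed to test compound for 48 hours across five concentrations. TGI: concentration producing complete growth inhibition.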
# Tested on: SK-MEL-28 melanoma
# Assay: NCI-60 cell line screen, 48 h
row,SMILES,TGI [µM]
1,Nc1nc(SCCC/C=C/I)nc2c1ncn2C1OC(COP(=O)(O)O)C(O)C1O (configuration not stated),> 100
2,Nc1c(S(=O)(=O)O)cc2cc(S(=O)(=O)O)ccc2c1N=Nc1ccc(-c2ccc(N=Nc3c(N)c(S(=O)(=O)O)cc4cc(S(=O)(=O)O)ccc34)c(S(=O)(=O)O)c2)cc1,> 100
3,N=c1nnc2ccc(Cl)cc2n1O,> 100
4,CCN(CC)CCNC(=O)c1cc2cc(NC(=O)c3cc4cc([N+](=O)[O-])ccc4[nH]3)ccc2[nH]1,66.8
5,CC1=C(Cl)C=CP(=O)(Oc2ccccc2)C1 (configuration not stated),> 100
6,COc1ccc(/C=c2\sc3n(c2=O)CCN=3)cc1,> 100

# Tested on: LOX IMVI melanoma
# Assay: NCI-60 cell line screen, 48 h
row,SMILES,TGI [µM]
1,COc1ccc(C(=C2C=CC=C2)c2ccc(OC)cc2)cc1,33.7
2,Oc1ccc(-c2nc3ccc(Br)cc3s2)cc1,30.1
3,Nc1nc(SCCC/C=C/I)nc2c1ncn2C1OC(COP(=O)(O)O)C(O)C1O (configuration not stated),> 100
4,Nc1c(S(=O)(=O)O)cc2cc(S(=O)(=O)O)ccc2c1N=Nc1ccc(-c2ccc(N=Nc3c(N)c(S(=O)(=O)O)cc4cc(S(=O)(=O)O)ccc34)c(S(=O)(=O)O)c2)cc1,> 100
5,N=c1nnc2ccc(Cl)cc2n1O,> 100
6,CCN(CC)CCNC(=O)c1cc2cc(NC(=O)c3cc4cc([N+](=O)[O-])ccc4[nH]3)ccc2[nH]1,> 100
7,CC1=C(Cl)C=CP(=O)(Oc2ccccc2)C1 (configuration not stated),> 100
8,COc1ccc(/C=c2\sc3n(c2=O)CCN=3)cc1,> 100

# Tested on: MOLT-4 leukemia
# Assay: NCI-60 cell line screen, 48 h
row,SMILES,TGI [µM]
1,COc1ccc(C(=C2C=CC=C2)c2ccc(OC)cc2)cc1,40.3
2,Oc1ccc(-c2nc3ccc(Br)cc3s2)cc1,> 100
3,Nc1nc(SCCC/C=C/I)nc2c1ncn2C1OC(COP(=O)(O)O)C(O)C1O (configuration not stated),> 100
4,Nc1c(S(=O)(=O)O)cc2cc(S(=O)(=O)O)ccc2c1N=Nc1ccc(-c2ccc(N=Nc3c(N)c(S(=O)(=O)O)cc4cc(S(=O)(=O)O)ccc34)c(S(=O)(=O)O)c2)cc1,> 100
5,N=c1nnc2ccc(Cl)cc2n1O,> 100
6,CCN(CC)CCNC(=O)c1cc2cc(NC(=O)c3cc4cc([N+](=O)[O-])ccc4[nH]3)ccc2[nH]1,> 100
7,CC1=C(Cl)C=CP(=O)(Oc2ccccc2)C1 (configuration not stated),> 10
8,COc1ccc(/C=c2\sc3n(c2=O)CCN=3)cc1,> 100

# Tested on: HT29 colon
# Assay: NCI-60 cell line screen, 48 h
row,SMILES,TGI [µM]
1,COc1ccc(C(=C2C=CC=C2)c2ccc(OC)cc2)cc1,66
2,Oc1ccc(-c2nc3ccc(Br)cc3s2)cc1,50.5
3,Nc1nc(SCCC/C=C/I)nc2c1ncn2C1OC(COP(=O)(O)O)C(O)C1O (configuration not stated),> 100
4,Nc1c(S(=O)(=O)O)cc2cc(S(=O)(=O)O)ccc2c1N=Nc1ccc(-c2ccc(N=Nc3c(N)c(S(=O)(=O)O)cc4cc(S(=O)(=O)O)ccc34)c(S(=O)(=O)O)c2)cc1,> 100
5,N=c1nnc2ccc(Cl)cc2n1O,> 100
6,CCN(CC)CCNC(=O)c1cc2cc(NC(=O)c3cc4cc([N+](=O)[O-])ccc4[nH]3)ccc2[nH]1,> 100
7,COc1ccc(/C=c2\sc3n(c2=O)CCN=3)cc1,> 100

# Tested on: UACC-62 melanoma
# Assay: NCI-60 cell line screen, 48 h
row,SMILES,TGI [µM]
1,COc1ccc(C(=C2C=CC=C2)c2ccc(OC)cc2)cc1,98.1
2,Oc1ccc(-c2nc3ccc(Br)cc3s2)cc1,27.4
3,Nc1nc(SCCC/C=C/I)nc2c1ncn2C1OC(COP(=O)(O)O)C(O)C1O (configuration not stated),> 100
4,Nc1c(S(=O)(=O)O)cc2cc(S(=O)(=O)O)ccc2c1N=Nc1ccc(-c2ccc(N=Nc3c(N)c(S(=O)(=O)O)cc4cc(S(=O)(=O)O)ccc34)c(S(=O)(=O)O)c2)cc1,> 100
5,N=c1nnc2ccc(Cl)cc2n1O,> 100
6,CCN(CC)CCNC(=O)c1cc2cc(NC(=O)c3cc4cc([N+](=O)[O-])ccc4[nH]3)ccc2[nH]1,87.5
7,CC1=C(Cl)C=CP(=O)(Oc2ccccc2)C1 (configuration not stated),> 100
8,COc1ccc(/C=c2\sc3n(c2=O)CCN=3)cc1,> 100

# Tested on: IGROV1 ovarian
# Assay: NCI-60 cell line screen, 48 h
row,SMILES,TGI [µM]
1,COc1ccc(C(=C2C=CC=C2)c2ccc(OC)cc2)cc1,> 100
2,Oc1ccc(-c2nc3ccc(Br)cc3s2)cc1,33.6
3,Nc1nc(SCCC/C=C/I)nc2c1ncn2C1OC(COP(=O)(O)O)C(O)C1O (configuration not stated),> 100
4,Nc1c(S(=O)(=O)O)cc2cc(S(=O)(=O)O)ccc2c1N=Nc1ccc(-c2ccc(N=Nc3c(N)c(S(=O)(=O)O)cc4cc(S(=O)(=O)O)ccc34)c(S(=O)(=O)O)c2)cc1,> 100
5,N=c1nnc2ccc(Cl)cc2n1O,> 100
6,CCN(CC)CCNC(=O)c1cc2cc(NC(=O)c3cc4cc([N+](=O)[O-])ccc4[nH]3)ccc2[nH]1,> 100
7,CC1=C(Cl)C=CP(=O)(Oc2ccccc2)C1 (configuration not stated),> 100

# Tested on: SNB-19 CNS
# Assay: NCI-60 cell line screen, 48 h
row,SMILES,TGI [µM]
1,COc1ccc(C(=C2C=CC=C2)c2ccc(OC)cc2)cc1,74.8
2,Oc1ccc(-c2nc3ccc(Br)cc3s2)cc1,85.2
3,Nc1nc(SCCC/C=C/I)nc2c1ncn2C1OC(COP(=O)(O)O)C(O)C1O (configuration not stated),> 100
4,Nc1c(S(=O)(=O)O)cc2cc(S(=O)(=O)O)ccc2c1N=Nc1ccc(-c2ccc(N=Nc3c(N)c(S(=O)(=O)O)cc4cc(S(=O)(=O)O)ccc34)c(S(=O)(=O)O)c2)cc1,> 100
5,N=c1nnc2ccc(Cl)cc2n1O,> 100
6,CCN(CC)CCNC(=O)c1cc2cc(NC(=O)c3cc4cc([N+](=O)[O-])ccc4[nH]3)ccc2[nH]1,> 100
7,CC1=C(Cl)C=CP(=O)(Oc2ccccc2)C1 (configuration not stated),> 100

# Tested on: SR leukemia
# Assay: NCI-60 cell line screen, 48 h
row,SMILES,TGI [µM]
1,COc1ccc(C(=C2C=CC=C2)c2ccc(OC)cc2)cc1,86.7
2,Oc1ccc(-c2nc3ccc(Br)cc3s2)cc1,36.2
3,Nc1nc(SCCC/C=C/I)nc2c1ncn2C1OC(COP(=O)(O)O)C(O)C1O (configuration not stated),> 100
4,N=c1nnc2ccc(Cl)cc2n1O,> 100
5,CCN(CC)CCNC(=O)c1cc2cc(NC(=O)c3cc4cc([N+](=O)[O-])ccc4[nH]3)ccc2[nH]1,> 100
6,COc1ccc(/C=c2\sc3n(c2=O)CCN=3)cc1,> 100

# Tested on: SK-MEL-2 melanoma
# Assay: NCI-60 cell line screen, 48 h
row,SMILES,TGI [µM]
1,COc1ccc(C(=C2C=CC=C2)c2ccc(OC)cc2)cc1,68.5
2,Oc1ccc(-c2nc3ccc(Br)cc3s2)cc1,33.3
3,Nc1nc(SCCC/C=C/I)nc2c1ncn2C1OC(COP(=O)(O)O)C(O)C1O (configuration not stated),> 100
4,Nc1c(S(=O)(=O)O)cc2cc(S(=O)(=O)O)ccc2c1N=Nc1ccc(-c2ccc(N=Nc3c(N)c(S(=O)(=O)O)cc4cc(S(=O)(=O)O)ccc34)c(S(=O)(=O)O)c2)cc1,> 100
5,N=c1nnc2ccc(Cl)cc2n1O,> 100
6,CCN(CC)CCNC(=O)c1cc2cc(NC(=O)c3cc4cc([N+](=O)[O-])ccc4[nH]3)ccc2[nH]1,> 100
7,CC1=C(Cl)C=CP(=O)(Oc2ccccc2)C1 (configuration not stated),> 100
8,COc1ccc(/C=c2\sc3n(c2=O)CCN=3)cc1,> 100

# Tested on: U251 CNS
# Assay: NCI-60 cell line screen, 48 h
row,SMILES,TGI [µM]
1,COc1ccc(C(=C2C=CC=C2)c2ccc(OC)cc2)cc1,71.6
2,Oc1ccc(-c2nc3ccc(Br)cc3s2)cc1,50.8
3,Nc1nc(SCCC/C=C/I)nc2c1ncn2C1OC(COP(=O)(O)O)C(O)C1O (configuration not stated),> 100
4,Nc1c(S(=O)(=O)O)cc2cc(S(=O)(=O)O)ccc2c1N=Nc1ccc(-c2ccc(N=Nc3c(N)c(S(=O)(=O)O)cc4cc(S(=O)(=O)O)ccc34)c(S(=O)(=O)O)c2)cc1,> 100
5,N=c1nnc2ccc(Cl)cc2n1O,> 100
6,CC1=C(Cl)C=CP(=O)(Oc2ccccc2)C1 (configuration not stated),> 100
7,COc1ccc(/C=c2\sc3n(c2=O)CCN=3)cc1,> 100

# Reference: PubChem BioAssay (NCI)
